Values of other authors, collected in patent US8507011B2, “Method for suppressing or preventing fibrous adhesion formation using a multicomponent aqueous oxychlorine composition prepared on-site” (priority 2009, dated 2013).

What was measured:
[1] = tested on: wound; conditions: 0.01% concentration
[2] = tested on: adhesion; conditions: interperitoneal infusion, rats

pKa	Compound	Wound irrigant activity (in words) [1]	Adhesion suppression versus control (in words) [2]
about 7.5	OCl [hypochlorous acid]	showed promise as an effective antimicrobial wound irrigant	–
–	CN(C)c1ccc2nc3ccc(=[N+](C)C)cc-3sc2c1 [methylene blue]	–	none were found between methylene blue and control
